Source: patent US20180088120A1, “Elevated PSMA Identifies Lethal Prostate Cancers” (Cornell University, priority 2012, published 2018)

System: prostate cancer lesions
Assay: FDG PET imaging of prostate cancer patients (comparison)
Format: in vivo, human
Excerpt: These panels show CT scans (left column) and PET scans (right column). […] However, this is not observed in the Fludeoxyglucose (^18F) PET (lower right panel).
FIGS. 7-9 show CT and PET/CT scan taken from the same patient as from FIG. 6.

Structure (SMILES): OC[C@H]1OC(O)[C@H]([18F])[C@@H](O)[C@@H]1O (some centres unmarked) [Fludeoxyglucose (^18F)]
- PET uptake in bone metastasis, left iliac bone (patient with metastatic prostate cancer, FIG. 5): not observed
- Uptake in skeletal lesions not clearly seen on bone scan (patient with prostate carcinoma, FIG. 6): non-FDG avid
